For the test, the target named is T1, KRAS G12C (Homo sapiens, UniProt P01116, G12C).
T1 construct: KRAS G12C (amino acid region: 1-169)
In words: Inhibitory activity on the KRAS G12C nucleotide (GDP-GTP) exchange reaction. The class given is biochemical. The settings on record: Bodipy FL GDP-bound KRAS G12C 25 nM; preincubation at 25° C. for 4 hours; SOS1 100 nM, GppNHp 1 μM, reaction for 30 minutes. Here is the method:
Test Example 2: Evaluation of Inhibitory Activity of Compounds on the KRAS G12C Nucleotide (GDP-GTP) Exchange Reaction
The inhibitory activity of compounds on the exchange reaction of GDP into GppNHp in Bodipy (trademark) FL-bound KRAS G12C was examined by fluorescence measurement using human recombinant KRAS G12C and SOS1 proteins.
For the preparation of KRAS G12C to which Bodipy FL GDP was bound, first, 50 µM KRAS G12C (amino acid region: 1-169) and 1 mM Bodipy FL GDP (Invitrogen, G22360) were incubated for 1 hour in a buffer (20 mM Tris-HCl (pH 7.5), 50 mM NaCl, 1 mM DTT) in ice in the presence of 2.5 mM EDTA. Thereafter, MgCl2 with a final concentration of 10 mM was added, and the mixture was incubated at room temperature for 30 minutes. The protein was allowed to pass through a NAP-5 column to remove free nucleotides and was used for compound evaluation.
For the measurement of the inhibitory activity of compounds on nucleotide exchange reaction, first, the compound of the disclosure was diluted stepwise with dimethyl sulfoxide (DMSO). Subsequently, a solution of the gradually diluted compound of the disclosure in DMSO (the final concentration of DMSO: 5%) and KRAS G12C (25 nM) bound to Bodipy FL GDP were added to a reaction buffer (20 mM Tris-HCl (pH 7.5), 100 mM NaCl, 1 mM MgCl2, 2 mM DTT, 0.1% Tween20), followed by preincubation at 25° C. for 4 hours. Thereafter, Son of Sevenless Homolog 1 (SOS1, amino acid region: 564-1049) and GppNHp (GMPPNP, Jena Bioscience GmbH, NU-401-50) were added such that their final concentration was 100 nM and 1 μM respectively, followed by reaction for 30 minutes. The change in fluorescence intensity of Bodipy FL (excitation wavelength: 485 nm, fluorescence wavelength: 520 nm) immediately after the start of reaction and after 30 minutes from the start of reaction was standardized. The signal value for only DMSO was determined to be 0% inhibition, and the signal value for no addition of GppNHp was determined to be 100% inhibition. The compound concentration at which 50% inhibition is achieved was determined to be the IC50 (nM) and was calculated.

Molecules are shown by their SMILES.

A word on the IC50: it is the concentration that gives 50% inhibition. A higher IC50 goes with lower potency.

T1 sequence (P01116 1-169 isoform P01116-2 G12C): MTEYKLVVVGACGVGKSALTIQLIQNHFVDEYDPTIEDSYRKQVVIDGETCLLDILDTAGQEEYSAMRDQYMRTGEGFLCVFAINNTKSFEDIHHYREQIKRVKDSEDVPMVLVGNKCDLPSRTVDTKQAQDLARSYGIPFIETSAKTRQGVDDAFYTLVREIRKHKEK

Molecule `C=CC(=O)N1CC(NC(=O)c2oc(CNc3n[nH]c4cc(Cl)c(C(C)(C)C)cc34)nc2C)C1` [Example 11, N-(1-acryloylazetidin-3-yl)-2-(((5-(tert-butyl)-6-chloro-1H-indazol-3-yl)amino)methyl)-4-methyloxazole-5-carboxamide] displayed an IC50 of 1.06 µM.

As for `C=CC(=O)N1CC(NC(=O)c2c(C)nc(CNc3n[nH]c4cc(Cl)c(C(C)(C)C)cc34)n2CC)C1` [Example 12, N-(1-acryloylazetidin-3-yl)-2-(((5-(tert-butyl)-6-chloro-1H-indazol-3-yl)amino)methyl)-1-ethyl-4-methyl-1H-imidazole-5-carboxamide], the IC50 came to 0.016 µM.

With `C=CC(=O)N1CC(NC(=O)c2c(C)nc(CNc3n[nH]c4cc(Cl)c(C(C)(C)C)cc34)n2C(C)C)C1` [Example 13, N-(1-acryloylazetidin-3-yl)-2-(((5-(tert-butyl)-6-chloro-1H-indazol-3-yl)amino)methyl)-1-isopropyl-4-methyl-1H-imidazole-5-carboxamide], it took 0.015 µM to reach half-maximal inhibition (IC50).

`C=CC(=O)N1CC(NC(=O)c2c(C)nc(CNc3n[nH]c4cc(Cl)c(C(C)(C)C)cc34)n2CCOC)C1` [Example 14, N-(1-acryloylazetidin-3-yl)-2-(((5-(tert-butyl)-6-chloro-1H-indazol-3-yl)amino)methyl)-1-(2-methoxyethyl)-4-methyl-1H-imidazole-5-carboxamide] gave a half-maximal inhibitory concentration (IC50) of 0.024 µM.

The molecule `C=CC(=O)N1CC(NC(=O)c2c(C)nc(CNc3n[nH]c4cc(Cl)c(C(C)(C)C)cc34)n2Cc2ccccc2)C1` [Example 15, N-(1-acryloylazetidin-3-yl)-1-benzyl-2-(((5-(tert-butyl)-6-chloro-1H-indazol-3-yl)amino)methyl)-4-methyl-JH-imidazole-5-carboxamide] returned a half-maximal inhibitory concentration (IC50) of 0.084 µM.

In turn, `C=CC(=O)N1CC(NC(=O)c2c(C)nc(CNc3n[nH]c4cc(Cl)c(C(C)(C)C)cc34)n2CCN(C)C)C1` [Example 16, N-(1-acryloylazetidin-3-yl)-2-(((5-(tert-butyl)-6-chloro-1H-indazol-3-yl)amino)methyl)-1-(2-(dimethylamino)ethyl)-4-methyl-JH-imidazole-5-carboxamide] gave an IC50 of 0.025 µM.

`C=CC(=O)N1CC(NC(=O)c2c(C)nc(CNc3n[nH]c4cc(Cl)c(C(C)(C)C)cc34)n2C2CCCC2)C1` [Example 17, N-(1-acryloylazetidin-3-yl)-2-(((5-(tert-butyl)-6-chloro-1H-indazol-3-yl)amino)methyl)-1-cyclopentyl-4-methyl-JH-imidazole-5-carboxamide] registered an IC50 of 0.017 µM.

The molecule `C=CC(=O)N1CC(NC(=O)c2c(C)nc(CNc3n[nH]c4cc(Cl)c(C(C)(C)C)cc34)n2CCCC)C1` [Example 18, N-(1-acryloylazetidin-3-yl)-1-butyl 2-(((5-(tert-butyl)-6-chloro-JH-indazol-3-yl)amino)methyl)-4-methyl-JH-imidazole-5-carboxamide] displayed a half-maximal inhibitory concentration (IC50) of 0.012 µM.

Molecule `C=CC(=O)N1CC(NC(=O)c2c(C)nc(CNc3n[nH]c4cc(Cl)c(C(C)(C)C)cc34)n2CCC)C1` [Example 19, N-(1-acryloylazetidin-3-yl)-2-(((5-(tert-butyl)-6-chloro-1H-indazol-3-yl)amino)methyl)-4-methyl-1-propyl-1H-imidazole-5-carboxamide] had an IC50 of 0.009 µM.

`C=CC(=O)N1CC(NC(=O)c2c(C)nc(CNc3n[nH]c4cc(Cl)c(C(C)(C)C)cc34)n2C(C)CC)C1` (centres unmarked) [Example 20, N-(1-acryloylazetidin-3-yl)-1-(sec-butyl)-2-(((5-(tert-butyl)-6-chloro-1H-indazol-3-yl)amino)methyl)-4-methyl-1H-imidazole-5-carboxamide] returned an IC50 of 0.031 µM.

The molecule `C=CC(=O)N1CC(NC(=O)c2c(C)nc(CNc3n[nH]c4cc(Cl)c(C(C)(C)C)cc34)n2C(F)F)C1` [Example 21, N-(1-acryloylazetidin-3-yl)-2-(((5-(tert-butyl)-6-chloro-1H-indazol-3-yl)amino)methyl)-1-(difluoromethyl)-4-methyl-1H-imidazole-5-carboxamide] had an IC50 of 0.058 µM.

Values taken from patent US20230181536A1, “ANTICANCER COMBINATION THERAPY WITH N-(1-ACRYLOYL-AZETIDIN-3-YL)-2-((1H-INDAZOL-3-YL)AMINO)METHYL)-1H-IMIDAZOLE-5-CARBOXAMIDE INHIBITOR OF KRAS-G12C” (TAIHO PHARMACEUTICAL CO., LTD., priority 2020, published 2023).
